Assay results published in patent US20230220063A1, “IL-1BETA BINDING ANTIBODIES FOR USE IN TREATING CANCER” (NOVARTIS AG, priority 2017, published 2023).

B1: Vantictumab: a therapeutic antibody which binds 5/10 Frizzled receptors (anti-Wnt) (antibody, chains of the INN, looked up, V domains shown)
VH: EVQLVESGGGLVQPGGSLRLSCAASGFTFSHYTLSWVRQAPGKGLEWVSVISGDGSYTYYADSVKGRFTISSDNSKNTLYLQMNSLRAEDTAVYYCARNFIKYVFANWGQGTLVTVSS
VL: DIELTQPPSVSVAPGQTARISCSGDNIGSFYVHWYQQKPGQAPVLVIYDKSNRPSGIPERFSGSNSGNTATLTISGTQAEDEADYYCQSYANTLSLVFGGGTKLTVL

Key:
[1] = test system: vasculature in trabecular bone; experiment: Blocking IL-1β signalling: blood vessels in the bone microenvironment of mice; format: in vivo
Protocol: Vasculature was visualised following CD34 and endomucin immunohistochemistry and the concentration of vascular endothelial growth factor (VEGF) and endothelin-1 in serum and/or bone marrow was determined by ELISA. Effects on bone volume were measured by Micro computed tomography (uCT).
(§1) Tumor cells, serum, and bone were subsequently resected for downstream analysis.

[2] = test system: MDA-MB-231 Luc2-TdTomato cells; experiment: Spontaneous human breast cancer metastasis to human bone implants in NOD SCID mice; format: in vivo
Protocol: To model human breast cancer metastasis to human bone implants two human bone discs were implanted subcutaneously into 10-week old female NOD SCID mice (n=10/group) under isofluorane anaesthetic. Mice received an injection of 0.003 mg vetergesic and Septrin was added to the drinking water for 1 week following bone implantation. Mice were left for 4 weeks before injecting 1×10^5 MDA-MB-231 Luc2-TdTomato, MCF7 Luc2 or T47D Luc2 cells in 20% Martigel/79% PBS/1% […] into the two hind mammary fat pads. Primary tumor growth and development of metastases was monitored weekly using an IVIS […] system (Caliper Life Sciences) following sub-cutaneous injection of 30 mg/ml D-luciferin (Invitrogen). On termination of experiments mammary tumors, circulating tumor cells, serum and bone metastases were resected. RNA was processed for downstream analysis by real time PCR, and cell lysates were taken for protein analysis and whole tissue for histology as previously described (Nutter et al., 2014; Ottewell et al., 2014a).
as §1
Whole blood was centrifuged at 10,000 g for 5 minutes and the serum removed for ELISA assays. The cell pellet was re-suspended in 5 ml of FSM lysis solution (Sigma-Aldrich, Pool, UK) to lyse red blood cells. Remaining cells were re-pelleted, washed 3x in PBS and re-suspended in a solution of PBS/10% FCS. Samples from 10 mice per group were pooled prior to isolation of TdTomato positive tumor cells using a MoFlow High performance cell sorter (Beckman Coulter, Cambridge UK) with the […] laser line from a Coherent I-90C tenable argon ion (Coherent, Santa Clara, CA). TdTomato fluorescence was detected by a 555LP dichroic long pass and a 580/30 nm band pass filter. Acquisition and analysis of cells was performed using Summit 4.3 software. Following sorting cells were immediately placed in RNA protect cell reagent (Ambion, Paisley, Renfrew, UK) and stored at -80° C. before RNA extraction.

[3] = test system: patient-derived breast cancer cells; experiment: Breast CSC mammosphere colony formation after exposure to human bone marrow in vitro; format: cell-based
Source text: (§2) Dissemination of tumour cells to bone marrow is an early event in breast cancer, however these cells may lie dormant in the bone environment for many years prior to eventual colonisation. Treatment for bone metastases is not curative, therefore new adjuvant therapies preventing disseminated cells from becoming metastatic lesions may be an effective therapeutic option to improve clinical outcomes. There is evidence that cancer stemcells (CSCs) within breast tumours are the cells capable of metastasis; however, little is known about which bone marrow-derived factors support dormant CSC survival and eventual colonisation. Using in vitro culture of primary human bone marrow and patient-derived breast cancer cells, and in vivo metastasis models of human breast cancer cells implanted into mice, we investigated signalling pathways regulating CSC colony formation in bone.
(§3) Dissemination of tumour cells to bone marrow is an early event in breast cancer, but these cells may lie dormant in the bone environment for many years before the development of clinical bone metastases. There is evidence that cancer stem cells (CSCs) within breast tumours are the cells capable of metastasis, but the effect of the bone environment on the regulation of CSCs has not been investigated. […] CSC activity following isolation from the bone environment was measured using mammosphere colony formation.

hsCRP = experiment: Gevokizumab: hsCRP change in type 2 diabetes patients; format: in vivo, human; conditions: top dose 0.3 mg/kg (~20 mg) Q4W
[4] = Gevokizumab clinical pharmacokinetics; format: in vivo, human
[5] = test system: human breast cancer cells; experiment: Spontaneous bone metastasis of human breast cancer cells implanted into mice; conditions: mouse
Source text: as §2, §3

Row | Molecule | average length of new blood vessels ([1]; 1 mg/kg for 21/31 days) | endothelin 1 and VEGF in the bone marrow (ELISA) ([1]; compared with control) | decrease in VEGF concentration ([1]; mice treated with 1 mg/kg for 21 days) [%] | decrease in the concentration of endothelin-1 ([1]; mice treated with 1 mg/kg for 31 days) [%] | average length of CD34^+ blood vessels in trabecular bone ([1]; p < 0.01 vs control) | mice with metastasis detected in human bone implants ([2]; 1 mg/kg IL-1Ra daily or 10 mg/kg canakinumab s.c. every 14 days from day 7, control 7 out of 10) | bone metastasis, photons/sec mean values ([2]; Placebo 3.60E+06) [photons/sec] | size of bone metastases ([2]; compared with control group) | bone turnover and neovascularisation ([2]; mouse, in vivo) | onset of breast cancer metastasis in human bone ([2]; mouse, in vivo) | primary tumour growth ([2]; murine model of spontaneous human breast cancer metastasis to human bone) | tumor cells counted in whole blood ([2]; placebo 108 tumor cells/ml) [tumor cells/ml] | induction of CSC activity by the bone marrow in vitro [3] | reduction of hsCRP (hsCRP) | Bioavailability ([4]; administered subcutaneously) | half-life ([4]; human, in vivo) | spontaneous bone metastasis in vivo [5]
1 | Anakinra: IL-1 receptor antagonist, clinically available recombinant form of the receptor antagonist | downwards trend | reduced concentrations | 22 | 69 | reduced the average length of CD34^+ blood vessels | 4 out of 10 | 4.83E+04 | smaller than those detected in the control group | reduced bone turnover and neovascularisation | delayed onset of breast cancer metastasis in human bone | without affecting the development of primary breast cancer | 3 | reverses induction of CSC activity |  |  |  | 
2 | gevokizumab: high-affinity, humanized monoclonal antibody of the IgG2 isotype to interleukin-1β; INN number 9310; allosteric inhibitor |  |  |  |  |  |  |  |  |  |  |  |  |  | up to 45% | about 56% | about 35 days | 
3 | B1 |  |  |  |  |  |  |  |  |  |  |  |  | reverses induction of CSC activity |  |  |  | prevents spontaneous bone metastasis
